In this assay the target is T1, human leukocyte elastase (HLE) (Homo sapiens, UniProt P08246).
T1 sequence (P08246 30-267): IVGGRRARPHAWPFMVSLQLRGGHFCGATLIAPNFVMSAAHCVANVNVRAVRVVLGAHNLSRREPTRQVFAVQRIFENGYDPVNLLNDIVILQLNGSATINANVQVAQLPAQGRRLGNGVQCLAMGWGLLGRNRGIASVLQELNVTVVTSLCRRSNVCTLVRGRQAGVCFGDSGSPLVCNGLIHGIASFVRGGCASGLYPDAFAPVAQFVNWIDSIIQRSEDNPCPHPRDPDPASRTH
The assay can be described thus: inhibition of human leukocyte elastase (HLE): rate of inactivation kon and inhibition constant Ki* (koff/kon). The settings on record: for pKi: not truly reversible, ratio of rate of reactivation to rate of inactivation of the enzyme, read-out: K*i (inhibition constant Ki * = koff /kon); for kon: rate of inactivation kon of enzymatic activity, values are Kon × 10^-3. Format: biochemical. Here is the method:
Thus, instead of measuring a Ki, a Ki * is calculated which is defined as the ratio of the koff /kon, the rate of reactivation of the enzyme to the rate of inactivation of the enzyme. The values of koff and kon are measured and Ki * is then calculated.
The rate of inactivation, kon, of enzymatic activity was determined for the compounds tested by measuring the enzyme activity of an aliquot of the respective enzyme as a function of time after addition of the test compound. […] The rate of inactivation is then equal to [formula] where [I] is the concentration of the inhibiting compound.
The reactivation constant, koff, is similarly determined, and the inhibition constant, Ki *, is then calculated as […]

SMILES strings stand for the structures. pKi: −log10 of the molar value.

What is called kon is a measure of how fast the partners come together. Low readings indicate slow association, high ones fast association.

For the molecule `COc1cc(C(C)C)c2c(c1)S(=O)(=O)N(COC(=O)C(C)(O)c1ccccc1)C2=O` (stereo not shown) [Example 1J], the pKi was 9.92 and the kon stood at 77700 M⁻¹ s⁻¹.
On to `CC(C)c1cccc2c1C(=O)N(COC(=O)C(C)(C)c1ccccc1)S2(=O)=O` [Example 1D], for which the pKi was 9.00 and the kon stood at 23000 M⁻¹ s⁻¹.
As to `CC(C)c1cccc2c1C(=O)N(COC(=O)C(C)(C)Oc1ccccc1Cl)S2(=O)=O` [Example 1F], the pKi is 9.10 and the association rate constant (kon) was found to be 29000 M⁻¹ s⁻¹.
With `COC(C(=O)OCN1C(=O)c2c(C(C)C)cccc2S1(=O)=O)c1ccccc1` (stereo not shown) [Example 1H], the pKi was 9.52 and the kon came out at 80000 M⁻¹ s⁻¹.
For `CC(C)(Oc1ccccc1Cl)C(=O)OCN1C(=O)c2ccccc2S1(=O)=O` [Example 1C] the same measures were 7.84 and 4100 M⁻¹ s⁻¹.
For `CC(C)c1cccc2c1C(=O)N(COC(=O)C(C)(C)Oc1ccc(Cl)cc1)S2(=O)=O` [Example 1E], the pKi was 9.22 and the kon came to 38000 M⁻¹ s⁻¹.
For `COc1cc(C(C)C)c2c(c1)S(=O)(=O)N(COC(=O)[C@H](OC)c1ccccc1)C2=O` [Example 1I], the pKi is 10.10 and the kon turned out to be 118000 M⁻¹ s⁻¹.
Turning to `CC(C)(C(=O)OCN1C(=O)c2ccccc2S1(=O)=O)c1ccccc1` [Example 1A], the pKi was 7.74 and the kon worked out at 3500 M⁻¹ s⁻¹.
Consider `COc1cc(C(C)C)c2c(c1)S(=O)(=O)N(COC(=O)[C@@H](OC)c1ccccc1)C2=O` [Example 1K], for which the pKi was 10.05 and the kon is 102000 M⁻¹ s⁻¹.
With `CC(C)c1cccc2c1C(=O)N(COC(=O)C(O)c1ccccc1)S2(=O)=O` (stereo not shown) [Example 1G], the pKi was 9.59 and the kon came out at 88500 M⁻¹ s⁻¹.
On to `CC(C)(Oc1ccc(Cl)cc1)C(=O)OCN1C(=O)c2ccccc2S1(=O)=O` [Example 1B], for which the pKi is 7.84 and the kon is 4000 M⁻¹ s⁻¹.
